According to EP1007530B1, “6-O-SUBSTITUTED ERYTHROMYCIN COMPOUNDS AND METHOD FOR MAKING SAME” (ABBOTT LABORATORIES, priority 1996, dated 1997):

How the values were obtained:
Experiment in all cases: In vitro assay of antibacterial activity (agar dilution MIC)
Format in all cases: cell-based
[1] = tested on: Streptococcus pyogenes PIU 2548; details: BHI agar, 35-37 °C, 20 to 24 hours, unit assumed
Method: (§1) Representative compounds of the present invention were assayed in vitro for antibacterial activity as follows: Twelve petri dishes containing successive aqueous dilutions of the test compound mixed with 10 mL of sterilized Brain Heart Infusion (BHI) agar (Difco 0418-01-5) were prepared. Each plate was inoculated with 1:100 (or 1:10 for slow-growing strains, such as Micrococcus and Streptococcus) dilutions of up to 32 different microorganisms, using a Steers replicator block. The inoculated plates were incubated at 35-37 °C for 20 to 24 hours, In addition, a control plate, using BHI agar containing no test compound, was prepared and incubated at the beginning and end of each test.
(§2) An additional plate containing a compound having known susceptibility patterns for the organisms being tested and belonging to the same antibiotic class as the test compound was also prepared and incubated as a further control, as well as to provide test-to-test comparability. Erythromycin A was used for this purpose.
(§3) After incubation, each plate was visually inspected. The minimum inhibitory concentration (MIC) was defined as the lowest concentration of drug yielding no growth, a slight haze, or sparsely isolated colonies on the inoculum spot as compared to the growth control. […]

Escherichia coli DC-2 = details: BHI agar, 35-37 °C, 20 to 24 hours, unit assumed
Method: as §1, §2, §3

Escherichia coli H560 = details: BHI agar, 35-37 °C, 20 to 24 hours, unit assumed
Method: as §1, §2, §3

Escherichia coli SS = details: BHI agar, 35-37 °C, 20 to 24 hours, unit assumed
Method: as §1, §2, §3

[2] = tested on: Staphylococcus aureus ATCC 6538P; details: BHI agar, 35-37 °C, 20 to 24 hours, unit assumed
Method: as §1, §2, §3

[3] = tested on: Streptococcus agalactiae CMX 508; details: BHI agar, 35-37 °C, 20 to 24 hours, unit assumed
Method: as §1, §2, §3

[4] = tested on: Providencia struartii CMX 640; details: BHI agar, 35-37 °C, 20 to 24 hours, unit assumed
Method: as §1, §2, §3

Escherichia coli JUHL = details: BHI agar, 35-37 °C, 20 to 24 hours, in µg/mL (unit assumed)
Method: as §1, §2, §3

[5] = tested on: Staphylococcus aureus CMX 553; details: BHI agar, 35-37 °C, 20 to 24 hours, unit assumed
Method: as §1, §2, §3

[6] = tested on: Pseudomonas aeruginosa K799/WT; details: BHI agar, 35-37 °C, 20 to 24 hours, unit assumed
Method: as §1, §2, §3

Escherichia coli KNK 437 = details: BHI agar, 35-37 °C, 20 to 24 hours, unit assumed
Method: as §1, §2, §3

[7] = tested on: Staphylococcus aureus CMX 642A; details: BHI agar, 35-37 °C, 20 to 24 hours, unit assumed
Method: as §1, §2, §3

[8] = tested on: Streptococcus pyogenes EES61; details: BHI agar, 35-37 °C, 20 to 24 hours, unit assumed
Method: as §1, §2, §3

[9] = tested on: Pseudomonas aeruginosa K799/61; details: BHI agar, 35-37 °C, 20 to 24 hours, unit assumed
Method: as §1, §2, §3

[10] = tested on: Mycobacterium smegmatis ATCC 114; details: BHI agar, 35-37 °C, 20 to 24 hours, unit assumed
Method: as §1, §2, §3

Candida albicans CCH 442 = details: BHI agar, 35-37 °C, 20 to 24 hours, unit assumed
Method: as §1, §2, §3

[11] = tested on: Enterobacter aerogenes ATCC 13048; details: BHI agar, 35-37 °C, 20 to 24 hours, unit assumed
Method: as §1, §2, §3

[12] = tested on: Staphylococcus aureus NCTC10649M; details: BHI agar, 35-37 °C, 20 to 24 hours, unit assumed
Method: as §1, §2, §3

[13] = tested on: Pseudomonas aeruginosa 5007; details: BHI agar, 35-37 °C, 20 to 24 hours, unit assumed
Method: as §1, §2, §3

[14] = tested on: Pseudomonas aeruginosa BMH10; details: BHI agar, 35-37 °C, 20 to 24 hours, in µg/mL (unit assumed)
Method: as §1, §2, §3

[15] = tested on: Staphylococcus epidermidis 3519; details: BHI agar, 35-37 °C, 20 to 24 hours, unit assumed
Method: as §1, §2, §3

[16] = tested on: Pseudomonas aeruginosa DPHD-5263; details: BHI agar, 35-37 °C, 20 to 24 hours, in µg/mL (unit assumed)
Method: as §1, §2, §3

[17] = tested on: Klebsiella pneumoniae ATCC 8045; details: BHI agar, 35-37 °C, 20 to 24 hours, unit assumed
Method: as §1, §2, §3

[18] = tested on: Streptococcus pyogenes 930; details: BHI agar, 35-37 °C, 20 to 24 hours, unit assumed
Method: as §1, §2, §3

[19] = tested on: Pseudomonas aeruginosa DPHD-2862; details: BHI agar, 35-37 °C, 20 to 24 hours, unit assumed
Method: as §1, §2, §3

[20] = tested on: Staphylococcus aureus A-5278; details: BHI agar, 35-37 °C, 20 to 24 hours, unit assumed
Method: as §1, §2, §3

[21] = tested on: Staphylococcus aureus 1775; details: BHI agar, 35-37 °C, 20 to 24 hours, unit assumed
Method: as §1, §2, §3

[22] = tested on: Enterococcus faecium ATCC 8043; details: BHI agar, 35-37 °C, 20 to 24 hours, unit assumed
Method: as §1, §2, §3

[23] = tested on: Micrococcus luteus ATCC 4698; details: BHI agar, 35-37 °C, 20 to 24 hours, unit assumed
Method: as §1, §2, §3

[24] = tested on: Micrococcus luteus ATCC 9341; details: BHI agar, 35-37 °C, 20 to 24 hours, unit assumed
Method: as §1, §2, §3

Pseudomonas capacia 2961 = details: BHI agar, 35-37 °C, 20 to 24 hours, in µg/mL (unit assumed)
Method: as §1, §2, §3

[25] = tested on: Actinetobacter calcoaceticus CMX 669; details: BHI agar, 35-37 °C, 20 to 24 hours, unit assumed
Method: as §1
(§4) An additional plate containing a compound having known susceptibility patterns for the organisms being tested and belonging to the same antibiotic class as the test compound was also prepared and incubated as a further control, as well as to provide test-to-test comparability.
as §3

[26] = tested on: Staphylococcus aureus A5177; details: BHI agar, 35-37 °C, 20 to 24 hours, unit assumed
Method: as §1, §4, §3

[27] = tested on: Streptococcus bovis A-5169; details: BHI agar, 35-37 °C, 20 to 24 hours, unit assumed
Method: as §1, §2, §3

| SMILES | MIC (Escherichia coli DC-2) | MIC (Escherichia coli H560) | MIC (Escherichia coli SS) | MIC [2] | MIC [3] | MIC [4] | MIC (Escherichia coli JUHL) | MIC [5] | MIC [6] | MIC (Escherichia coli KNK 437) | MIC [7] | MIC [8] | MIC [9] | MIC [10] | MIC (Candida albicans CCH 442) | MIC [11] | MIC [12] | MIC [13] | MIC [14] | MIC [15] | also measured |
| --- | --- | --- | --- | --- | --- | --- | --- | --- | --- | --- | --- | --- | --- | --- | --- | --- | --- | --- | --- | --- | --- |
| CC[C@H]1OC(=O)[C@H](C)[C@@H](O[C@H]2C[C@@](C)(OC)[C@@H](O)[C@H](C)O2)[C@H](C)[C@@H](O[C@@H]2O[C@H](C)C[C@H](N(C)C)[C@H]2O)[C@](C)(OCC(O)CN2CCOCC2)C[C@@H](C)C(=O)[C@H](C)[C@@H](O)[C@]1(C)O (stereo partly drawn) [Example 6, Comnound of Formula (X): X is =O, R is 2-hydroxy-3-(morpholin-4-yl)propyl] | > 100 mg/L | 100 mg/L | 0.78 mg/L | 0.78 mg/L | 0.1 mg/L | > 100 mg/L | > 100 | 0.78 mg/L | > 100 mg/L | > 100 mg/L | 1.56 mg/L | 0.05 mg/L | 12.5 mg/L | 0.2 mg/L | > 100 mg/L | > 100 mg/L | 0.78 mg/L | > 100 mg/L | > 100 | 0.78 mg/L | MIC [1]: 6.2 mg/L; MIC [16]: > 100; MIC [17]: > 100 mg/L; MIC [18]: > 100 mg/L; MIC [19]: > 100 mg/L; MIC [20]: > 100 mg/L; MIC [21]: > 100 mg/L; MIC [22]: 0.39 mg/L; MIC [23]: 1.56 mg/L; MIC [24]: 0.1 mg/L; MIC (Pseudomonas capacia 2961): > 100; MIC [25]: 25 mg/L; MIC [26]: 25 mg/L |
| CC[C@H]1OC(=O)[C@H](C)[C@@H](O[C@H]2C[C@@](C)(OC)[C@@H](O)[C@H](C)O2)[C@H](C)[C@@H](O[C@@H]2O[C@H](C)C[C@H](N(C)C)[C@H]2O)[C@](C)(OCC(O)CNCc2ccccc2)C[C@@H](C)C(=O)[C@H](C)[C@@H](O)[C@]1(C)O (stereo partly drawn) [Example 7, Compound of Formula (X): X is =O, R is 2-hydroxy-3-(benzylamino)propyl] | 6.2 mg/L | 1.56 mg/L | 0.2 mg/L | 0.39 mg/L | 0.01 mg/L | > 100 mg/L | 12.5 | 0.39 mg/L | 100 mg/L | 12.5 mg/L | 0.39 mg/L | 0.01 mg/L | 0.39 mg/L | 0.2 mg/L | > 100 mg/L | 50 mg/L | 0.39 mg/L | > 100 mg/L | 25 | 0.39 mg/L | MIC [27]: 0.01 mg/L; MIC [16]: > 100; MIC [17]: 25 mg/L; MIC [18]: > 100 mg/L; MIC [19]: > 100 mg/L; MIC [20]: > 100 mg/L; MIC [21]: > 100 mg/L; MIC [22]: 0.39 mg/L; MIC [23]: 0.78 mg/L; MIC [24]: 0.02 mg/L; MIC (Pseudomonas capacia 2961): > 100; MIC [25]: 12.5 mg/L; MIC [26]: 3.1 mg/L |
| C#CCO[C@]1(C)C[C@@H](C)C(=O)[C@H](C)[C@@H](O)[C@](C)(O)[C@@H](CC)OC(=O)[C@H](C)[C@@H](O[C@H]2C[C@@](C)(OC)[C@@H](O)[C@H](C)O2)[C@H](C)[C@H]1O[C@@H]1O[C@H](C)C[C@H](N(C)C)[C@H]1O [Example 10, Compound of Formula (X): X is =O, R is -CH2-C≡CH] | 100 mg/L | 25 mg/L | 0.78 mg/L | 0.2 mg/L | 0.05 mg/L | > 100 mg/L | 50 | 0.39 mg/L | > 100 mg/L | > 100 mg/L | 0.39 mg/L | 0.01 mg/L | 3.1 mg/L | 0.39 mg/L | > 100 mg/L | > 100 mg/L | 0.39 mg/L | > 100 mg/L | 100 | 0.2 mg/L | MIC [27]: 0.01 mg/L; MIC [16]: > 100; MIC [17]: > 100 mg/L; MIC [18]: > 100 mg/L; MIC [19]: > 100 mg/L; MIC [20]: > 100 mg/L; MIC [21]: > 100 mg/L; MIC [22]: 0.1 mg/L; MIC [23]: 0.78 mg/L; MIC [24]: 0.05 mg/L; MIC (Pseudomonas capacia 2961): >100; MIC [25]: 12.5 mg/L; MIC [26]: 6.2 mg/L |
